# In patent US9255094B2, “Pyrido[4,3-B]indoles and methods of use” (Medivation Technologies, Inc., priority 2009, dated 2016):
# How the values were obtained:
# [1] = molecular target: T1, human recombinant serotonin (5-Hydroxytryptamine) 5-HT6 receptor (Homo sapiens, UniProt P50406); test: Serotonin 5-HT6 radioligand binding assay ([3H]LSD); settings: HeLa cells; for inhibition at 0.1 µM: compound at 0.1 μM, read-out: Percent Inhibition of ligand binding, Serotonin (0.1 μM) 5-HT6
# T1 construct: expressed in transfected cells; host or cells: human HeLa cells
# T1 sequence (P50406 whole entry): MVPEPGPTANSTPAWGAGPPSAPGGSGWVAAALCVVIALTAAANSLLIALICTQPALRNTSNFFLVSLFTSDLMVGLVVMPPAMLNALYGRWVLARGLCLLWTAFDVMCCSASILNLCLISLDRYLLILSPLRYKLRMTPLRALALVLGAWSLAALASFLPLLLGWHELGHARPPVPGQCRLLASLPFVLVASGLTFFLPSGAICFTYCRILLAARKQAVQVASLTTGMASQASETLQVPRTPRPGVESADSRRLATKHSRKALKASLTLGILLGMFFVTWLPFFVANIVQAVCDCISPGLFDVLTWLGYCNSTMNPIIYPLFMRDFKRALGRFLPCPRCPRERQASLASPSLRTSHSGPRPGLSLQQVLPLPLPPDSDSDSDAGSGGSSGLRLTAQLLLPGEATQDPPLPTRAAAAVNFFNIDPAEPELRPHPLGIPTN
# Procedure: (§1) Compounds of the invention were incubated with 1.5 nM [3H]Lysergic acid diethylamide (LSD) for 120 min at 37° C. […] Receptor proteins were filtered and washed, the filters were then counted to determine [3H]LSD specifically bound. Compounds were screened at 1 μM or lower, using 1% DMSO as vehicle. Biochemical assay results are presented as the percent inhibition of specific binding in Table 4.
# [2] = molecular target: T2, human recombinant serotonin (5-Hydroxytryptamine) 5-HT2A receptor (Homo sapiens, UniProt P28223); test: Serotonin 5-HT2A radioligand binding assay ([3H]Ketanserin); settings: 0.5 nM [3H]Ketanserin, CHO-K1 cells; for Percent Inhibition of ligand binding, Serotonin (1 μM) 5-HT2A / inhibition at 1 µM: compound at 1 μM; for inhibition at 1 µM: read-out: Percent Inhibition of ligand binding, Serotonin (1 μM) 5-HT2A; for inhibition at 0.1 µM: compound at 0.1 μM, read-out: Percent Inhibition of ligand binding, Serotonin (0.1 μM) 5-HT2A
# T2 construct: expressed in transfected cells; host or cells: Chinese hamster ovary (CHO-K1) cells
# T2 sequence (P28223 whole entry): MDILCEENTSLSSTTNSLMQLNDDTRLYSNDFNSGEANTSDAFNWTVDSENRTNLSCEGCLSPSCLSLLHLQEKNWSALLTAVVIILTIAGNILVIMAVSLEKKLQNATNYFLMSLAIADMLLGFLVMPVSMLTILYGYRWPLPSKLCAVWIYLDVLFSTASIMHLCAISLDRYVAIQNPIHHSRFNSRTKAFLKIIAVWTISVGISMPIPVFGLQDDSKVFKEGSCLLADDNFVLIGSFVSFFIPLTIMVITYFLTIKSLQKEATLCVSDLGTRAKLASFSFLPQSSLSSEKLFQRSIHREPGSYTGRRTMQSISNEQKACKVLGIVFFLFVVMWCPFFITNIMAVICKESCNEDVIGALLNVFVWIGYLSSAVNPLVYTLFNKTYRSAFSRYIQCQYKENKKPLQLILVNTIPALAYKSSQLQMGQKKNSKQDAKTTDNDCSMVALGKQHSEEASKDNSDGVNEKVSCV
# Procedure: (§2) Compounds of the invention were incubated with 0.5 nM [^3H]Ketanserin for 60 min at 25° C. Non-specific binding was estimated in the presence of 1 μM Mianserin. Receptor proteins were filtered and washed, the filters were then counted to determine [^3H]Ketanserin specifically bound. Compounds were screened at 1 μM or lower, using 1% DMSO as vehicle. Biochemical assay results are presented as the percent inhibition of specific binding in Table 4.
# [3] = molecular target: T3, human recombinant adrenergic α1D receptor (Homo sapiens, UniProt P25100); test: Adrenergic α1D radioligand binding assay ([3H]Prozosin); settings: compound at 1 μM; 0.6 nM [3H]Prozosin; HEK-293 cells; read-out: Percent Inhibition of ligand binding, Adrenergic (1 μM) a1D
# T3 construct: expressed in transfected cells; host or cells: human embryonic kidney (HEK-293) cells
# T3 sequence (P25100 1-572): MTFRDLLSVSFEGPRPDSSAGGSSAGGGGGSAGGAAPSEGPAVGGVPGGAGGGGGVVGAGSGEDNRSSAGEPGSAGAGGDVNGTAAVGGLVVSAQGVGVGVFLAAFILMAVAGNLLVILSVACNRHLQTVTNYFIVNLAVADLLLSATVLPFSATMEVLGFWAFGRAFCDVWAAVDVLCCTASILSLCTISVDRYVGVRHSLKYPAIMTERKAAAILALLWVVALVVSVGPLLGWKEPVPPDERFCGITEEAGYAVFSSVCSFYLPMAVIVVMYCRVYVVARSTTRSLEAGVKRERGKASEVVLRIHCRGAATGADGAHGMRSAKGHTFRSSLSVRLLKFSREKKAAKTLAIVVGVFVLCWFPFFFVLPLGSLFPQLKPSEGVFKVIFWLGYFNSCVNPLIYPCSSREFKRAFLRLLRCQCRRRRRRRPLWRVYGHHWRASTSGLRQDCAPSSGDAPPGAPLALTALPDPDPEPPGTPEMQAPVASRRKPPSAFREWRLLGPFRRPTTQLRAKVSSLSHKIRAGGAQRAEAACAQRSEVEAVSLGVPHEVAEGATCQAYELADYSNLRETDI
# Procedure: Compounds of invention were incubated with 0.6 nM [^3H]Prozosin for 60 min at 25° C. Non-specific binding was estimated in the presence of 10 μM phentolamine Receptor proteins were filtered and washed, the filters were then counted to determine [^3H]Prozosin specifically bound.
# [4] = molecular target: human recombinant histamine H1 receptor (Homo sapiens, UniProt P35367); test: Histamine H1 radioligand binding assay ([3H]Pyrilamine); settings: compound at 1 μM, receptor expressed in CHO cells
# Sequence of human recombinant histamine H1 receptor (P35367 whole entry): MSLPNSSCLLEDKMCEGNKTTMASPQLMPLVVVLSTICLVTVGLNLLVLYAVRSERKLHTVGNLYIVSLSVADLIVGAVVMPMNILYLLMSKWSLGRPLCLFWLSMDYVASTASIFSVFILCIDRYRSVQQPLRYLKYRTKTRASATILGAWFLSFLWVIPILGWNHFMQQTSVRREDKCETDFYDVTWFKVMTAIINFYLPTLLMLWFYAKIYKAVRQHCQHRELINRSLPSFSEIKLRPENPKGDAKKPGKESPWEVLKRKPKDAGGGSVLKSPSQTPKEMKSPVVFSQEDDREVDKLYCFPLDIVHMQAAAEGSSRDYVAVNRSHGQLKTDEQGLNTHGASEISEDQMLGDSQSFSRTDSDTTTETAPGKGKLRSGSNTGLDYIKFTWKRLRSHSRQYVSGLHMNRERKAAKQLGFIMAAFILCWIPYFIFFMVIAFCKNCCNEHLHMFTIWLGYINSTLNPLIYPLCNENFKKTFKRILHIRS
# Procedure: To evaluate in radioligand binding assays the activity of compounds of the invention, human recombinant histamine H1 receptor expressed in Chinese hamster ovary (CHO) cells (De Backer, M. D. et al., Biochem. Biophys. Res. Comm. 197(3):1601, 1993) in a modified Tris-HCl buffer (50 mM Tris-HCl, pH 7.4, 2 mM MgCl2, 100 mM NaCl, 250 mM Sucrose) was used. Compounds of the invention were incubated with 1.2 nM [^3H]Pyrilamine for 180 min at 25° C. Non-specific binding was estimated in the presence of 1 μM pyrilamine Receptor proteins were filtered and washed, the filters were then counted to determine [^3H]Pyrilamine specifically bound. Compounds were screened at 1 μM or lower, using 1% DMSO as vehicle. Biochemical assay results are presented as the percent inhibition of specific binding in Table 2.
# [5] = molecular target: human recombinant serotonin (5-Hydroxytryptamine) 5-HT7 receptor (Homo sapiens, UniProt P34969); test: Serotonin 5-HT7 radioligand binding assay ([3H]LSD); settings: 5.5 nM [3H]LSD, CHO cells; for inhibition at 0.1 µM: compound at 0.1 μM, read-out: Percent Inhibition of ligand binding, Serotonin (0.1 μM) 5-HT7
# Sequence of human recombinant serotonin (5-Hydroxytryptamine) 5-HT7 receptor (P34969 whole entry): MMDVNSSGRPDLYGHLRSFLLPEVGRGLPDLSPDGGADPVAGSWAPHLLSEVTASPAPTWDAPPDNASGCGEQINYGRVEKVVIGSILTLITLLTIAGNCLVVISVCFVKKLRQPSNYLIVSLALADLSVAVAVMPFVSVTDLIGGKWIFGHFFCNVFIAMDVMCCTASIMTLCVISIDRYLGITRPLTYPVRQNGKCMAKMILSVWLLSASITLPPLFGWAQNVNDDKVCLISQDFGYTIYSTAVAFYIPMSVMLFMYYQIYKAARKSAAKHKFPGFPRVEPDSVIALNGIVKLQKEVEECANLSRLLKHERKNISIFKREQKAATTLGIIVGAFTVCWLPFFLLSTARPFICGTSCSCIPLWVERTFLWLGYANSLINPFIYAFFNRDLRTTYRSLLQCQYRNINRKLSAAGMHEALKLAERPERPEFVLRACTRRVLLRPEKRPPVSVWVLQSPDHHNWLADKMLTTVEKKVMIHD
# Procedure: as §1, with “of” for “of the”, “5.5” for “1.5”, “[^3H] Lysergic” for “[3H]Lysergic”, “2 h” for “120 min”, “25°” for “37°”, “[^3H]LSD” for “[3H]LSD”
# [6] = molecular target: T4, human recombinant serotonin (5-Hydroxytryptamine) 5-HT2C receptor (Homo sapiens, UniProt P28335); test: Serotonin 5-HT2C radioligand binding assay ([3H]Mesulergine); settings: 1 nM [3H]Mesulergine, CHO-K1 cells; for inhibition at 0.1 µM: compound at 0.1 μM, read-out: Percent Inhibition of ligand binding, Serotonin (0.1 μM) 5-HT2C
# T4 construct: expressed in transfected cells; host or cells: Chinese hamster ovary (CHO-K1) cells
# T4 sequence (P28335 33-458): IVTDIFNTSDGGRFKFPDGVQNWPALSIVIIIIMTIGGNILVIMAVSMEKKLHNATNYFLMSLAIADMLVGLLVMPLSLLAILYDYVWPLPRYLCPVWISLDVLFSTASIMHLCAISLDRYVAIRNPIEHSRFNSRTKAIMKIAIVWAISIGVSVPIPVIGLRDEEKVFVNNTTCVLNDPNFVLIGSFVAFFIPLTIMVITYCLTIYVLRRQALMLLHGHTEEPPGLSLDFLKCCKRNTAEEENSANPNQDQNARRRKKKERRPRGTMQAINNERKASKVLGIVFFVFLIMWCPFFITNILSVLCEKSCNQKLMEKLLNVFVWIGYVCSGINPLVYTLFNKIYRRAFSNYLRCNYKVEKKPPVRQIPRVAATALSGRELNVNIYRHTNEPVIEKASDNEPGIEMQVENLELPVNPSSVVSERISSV
# Procedure: as §2, with “1” for “0.5”, “[^3H]Mesulergine” for “[^3H]Ketanserin”
# [7] = molecular target: T5, human recombinant adrenergic α2A receptor (Homo sapiens, UniProt P08913); test: Adrenergic α2A radioligand binding assay ([3H]MK-912); settings: compound at 1 μM, 1 nM [3H]MK-912, insect Sf9 cells
# T5 construct: expressed in transfected cells; host or cells: insect Sf9 cells
# T5 sequence (P08913 1-465): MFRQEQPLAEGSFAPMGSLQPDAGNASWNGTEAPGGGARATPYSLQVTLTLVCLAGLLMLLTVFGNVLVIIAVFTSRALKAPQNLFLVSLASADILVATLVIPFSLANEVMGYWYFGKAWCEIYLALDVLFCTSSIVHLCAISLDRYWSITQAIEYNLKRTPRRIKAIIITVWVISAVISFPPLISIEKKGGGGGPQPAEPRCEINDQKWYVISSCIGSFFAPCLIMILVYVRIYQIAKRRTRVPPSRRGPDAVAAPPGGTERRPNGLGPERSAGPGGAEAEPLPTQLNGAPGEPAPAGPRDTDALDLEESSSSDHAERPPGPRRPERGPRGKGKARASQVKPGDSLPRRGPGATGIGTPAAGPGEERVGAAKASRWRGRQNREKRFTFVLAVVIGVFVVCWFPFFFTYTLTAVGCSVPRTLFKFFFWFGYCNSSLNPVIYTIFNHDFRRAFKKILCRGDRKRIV
# Procedure: To evaluate in radioligand binding assays the activity of compounds of the invention, human recombinant adrenergic α2A receptor expressed in insect Sf9 cells (Uhlen S et al. J. Pharmacol. Exp. Ther. 271:1558, 1994) in a modified Tris-HCl buffer (50 mM Tris-HCl, pH 7.4, 12.5 mM MgCl2, 2 mM EDTA) was used. Compounds of invention were incubated with 1 nM [^3H]MK-912 for 60 min at 25° C. MK912 is (2S-trans)-1,3,4,5′,6,6′,7,12b-octahydro-1′,3′-dimethyl-spiro[2H-benzofuro[2,3-a]quinolizine-2,4′(1′H)-pyrimidin]-2′(3′H)-one hydrochloride Non-specific binding was estimated in the presence of 10 μM WB-4101 (2-(2,6-dimethoxyphenoxyethyl)aminomethyl-1,4-benzodioxane hydrochloride). Receptor proteins were filtered and washed, the filters were then counted to determine [^3H]MK-912 specifically bound.
# [8] = molecular target: human recombinant dopamine D2L receptor (Homo sapiens, UniProt P14416); test: Dopamine D2L radioligand binding assay ([3H]Spiperone); settings: compound at 1 μM, 0.16 nM [3H]Spiperone, CHO cells, read-out: Percent Inhibition of ligand binding, Dopamine (1μM)
# Sequence of human recombinant dopamine D2L receptor (P14416 whole entry): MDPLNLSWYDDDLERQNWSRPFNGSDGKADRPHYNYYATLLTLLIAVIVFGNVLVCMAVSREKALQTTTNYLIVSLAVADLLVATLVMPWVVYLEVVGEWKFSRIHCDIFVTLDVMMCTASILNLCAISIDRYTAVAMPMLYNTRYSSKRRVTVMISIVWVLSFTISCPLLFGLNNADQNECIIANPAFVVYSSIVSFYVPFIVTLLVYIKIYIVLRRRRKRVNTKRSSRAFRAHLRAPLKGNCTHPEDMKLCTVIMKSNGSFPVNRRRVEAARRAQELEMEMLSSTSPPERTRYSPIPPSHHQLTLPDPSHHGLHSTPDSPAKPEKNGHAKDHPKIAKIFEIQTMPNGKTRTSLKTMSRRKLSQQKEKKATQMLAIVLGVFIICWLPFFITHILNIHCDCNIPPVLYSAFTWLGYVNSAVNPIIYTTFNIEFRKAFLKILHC
# Procedure: Compounds of the invention were incubated with 0.16 nM [^3H]Spiperone for 120 min at 25° C. Non-specific binding was estimated in the presence of 10 μM Haloperidol. Receptor proteins were filtered and washed, the filters were then counted to determine [^3H]Spiperone specifically bound. Compounds were screened at 1 μM or lower, using 1% DMSO as vehicle. Biochemical assay results are presented as the percent inhibition of specific binding in Table 3.
Compound,"Percent Inhibition of ligand binding, Serotonin (1 μM) 5-HT2A [2] [%]",inhibition at 1 µM [2] [%],inhibition at 0.1 µM [1] [%],inhibition at 0.1 µM [2] [%],inhibition at 1 µM [8] [%],inhibition at 1 µM [4] [%],inhibition at 0.1 µM [5] [%],inhibition at 0.1 µM [6] [%],other results
"COc1ccc(C(C)(O)Cn2c3c(c4cc(C)ccc42)CN(C)CC3)cc1 (centres unmarked) [Compound 1-4, 1-(2,8-dimethyl-3,4-dihydro-1H-pyrido[4,3-b]indol-5(2H)-yl)-2-(4-methoxyphenyl)propan-2-ol]",100,97,,,,,,,"Percent Inhibition of ligand binding, Serotonin (1 μM) 5-HT6 ([1]; compound at 1 μM): 87%; inhibition at 1 µM [3]: 57%; Binding Data (% Inhibition) Histamine Binding (1μM) H1 [4]: 43%; Percent Inhibition of ligand binding, Serotonin (1 μM) 5-HT7 ([5]; compound at 1 μM): 98%; Percent Inhibition of ligand binding, Serotonin (1 μM) 5-HT2C ([6]; compound at 1 μM): 98%"
"CCCCC(O)(Cn1c2c(c3cc(Cl)ccc31)CN(C)CC2)c1ccc(F)cc1 (centres unmarked) [Compound 1-7, 1-(8-chloro-2-methyl-3,4-dihydro-1H-pyrido[4,3-b]indol-5(2H)-yl)-2-(4-fluorophenyl)hexan-2-ol]",,98,,,,,,,"inhibition at 1 µM ([7]; read-out: Percent Inhibition of ligand binding, Adrenergic (1 μM) a2A): 88%"
"Cc1ccc(CCn2c3c(c4cc(Cl)ccc42)CN(C)C(C)C3)cn1 (centres unmarked) [Compound 1-48, 8-chloro-2,3-dimethyl-5-(2-(6-methylpyridin-3-yl)ethyl)-2,3,4,5-tetrahydro-1H-pyrido[4,3-b]indole]",,,50,30,12,101,86,40,
"Cc1ccc2c(c1)c1c(n2CC2(c3ccncc3)CC2)CCN(C)C1 [Compound 1-50, 2,8-dimethyl-5-((1-(pyridin-4-yl)cyclopropyl)methyl)-2,3,4,5-tetrahydro-1H-pyrido[4,3-b]indole]",,,30,77,47,97,95,-1,
"Cc1ccc2c(c1)c1c(n2CCc2ccc(C(F)(F)F)nc2)C(C)CN(C)C1 (centres unmarked) [Compound 1-51, 2,4,8-trimethyl-5-(2-(6-(trifluoromethyl)pyridin-3-yl)ethyl)-2,3,4,5-tetrahydro-1H-pyrido[4,3-b]indole]",,,4,77,14,65,15,92,
"CCCCC(O)(Cn1c2c(c3cc(Cl)ccc31)CN(C)CC2)c1ccc(F)cc1 (centres unmarked) [Compound 1-64, 1-(8-chloro-2-methyl-3,4-dihydro-1H-pyrido[4,3-b]indol-5(2H)-yl)-2-(4-fluorophenyl)hexan-2-ol]",98,,,,,,,,"Percent Inhibition of ligand binding, Adrenergic (1 μM) a2A [7]: 88%"
